We go through seven compounds from ChEMBL document CHEMBL1201862, “PubChem BioAssay data set” (2004).

Activity calls are given as the source filed them.

The nature of test [1]: Trypanosoma cruzi growth suppression in host cells – NIH3T3 host cells, beta-gal luminescence, confirmation (AID 2044).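 Note: intracellular parasites grown in NIH/3T3 mouse fibroblasts as host cells; luminescent beta-galactosidase reporter signal from transgenic T. cruzi replicating inside host cells; inhibitors lower the luminescence signal.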 Type of test: functional, cell-based.
Test [2] addresses T1, High affinity choline transporter 1 (Homo sapiens, UniProt Q9GZV3).
T1 sequence (Q9GZV3 whole entry): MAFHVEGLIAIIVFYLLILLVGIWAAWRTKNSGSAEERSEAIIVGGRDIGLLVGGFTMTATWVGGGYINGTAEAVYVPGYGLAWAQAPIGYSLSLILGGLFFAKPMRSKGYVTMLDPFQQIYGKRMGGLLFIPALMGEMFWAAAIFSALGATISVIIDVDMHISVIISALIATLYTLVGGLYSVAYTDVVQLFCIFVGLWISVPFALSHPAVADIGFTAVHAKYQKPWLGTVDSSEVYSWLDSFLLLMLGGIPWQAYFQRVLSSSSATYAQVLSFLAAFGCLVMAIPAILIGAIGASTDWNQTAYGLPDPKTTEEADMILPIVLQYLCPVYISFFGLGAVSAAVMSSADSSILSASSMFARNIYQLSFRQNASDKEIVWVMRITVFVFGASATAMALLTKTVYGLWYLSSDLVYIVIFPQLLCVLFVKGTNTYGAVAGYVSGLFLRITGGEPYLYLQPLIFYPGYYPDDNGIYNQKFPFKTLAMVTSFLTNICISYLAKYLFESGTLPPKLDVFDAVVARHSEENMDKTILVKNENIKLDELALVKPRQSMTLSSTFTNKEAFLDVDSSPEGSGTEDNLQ
As to the kind of experiment: human choline transporter potentiators, potency – cell-based, 10-point CRC, membrane potential dye, dose response (AID 602376). Type of test: functional.

A short description of test [3]: NIH3T3 cell viability loss – ATP luminescence, mouse fibroblasts, counter-screen, dose response (AID 2010).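 Note: cells exposed to compound for about 90 hours before reading.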 Format: functional, cell-based. (Counterscreens check selectivity or assay interference.)
Test [4] in a line: bead-based luminescence quenchers, dual-tagged ARNT – biochemical, AlphaScreen, cherry-pick, artefact control for ARNT-TACC3 interaction inhibitor project, dose response (AID 651705).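 Note: AlphaScreen bead proximity signal that flags compounds interfering with the detection technology; potency reflects signal decrease which marks the compound as an assay artifact.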 Format: functional. Background: In Alpha technology, singlet oxygen from a donor bead excites a nearby acceptor bead.
For another test, the target named is Interleukin-8 (Homo sapiens, UniProt P10145). Put plainly: Dose Response confirmation of uHTS small molecule hits for cystic fibrosis induced NFkb Inhibitors in a PAF-induced IL8 counterscreen. Type of test: functional. Conditions: read-out: IC50_Mean.
In test [5] the target is T2, Sentrin-specific protease 1 (Homo sapiens, UniProt Q9P0U3). Put plainly: SENP1 catalytic domain blockers, concentration series – biochemical, kinetic FRET, dose response (AID 651697). Format: functional. Conditions: read-out: IC50_Mean.
Test [6] has as its target T2, Sentrin-specific protease 1. As to the kind of experiment: Dose response confirmation of small molecule inhibitors of the catalytic domain of the SUMO protease, SENP1 in a FRET assay. Format: functional. To be noted: read-out: IC50_Mean.
Test [7] has as its target Photoreceptor-specific nuclear receptor (Homo sapiens, UniProt Q9Y5X4). Type of test: functional, cell-based.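 Note: CHO-S cells with Gal4-NCOR and VP16-NR2E3 two-hybrid luciferase reporter.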
Test [8] in a line: inhibitors of EBV LMP1 NF-kappaB signaling – cell-based, luciferase reporter, luminescence, dry powder, set 2, dose response (AID 624376). Format: functional.
The nature of test [9]: cytotoxicity in HEK293 background cells – cell-based, dry powder, set 2, counter-screen for EBV LMP1 inhibitor project, dose response (AID 624374). Type of test: functional.
The test system of a further test is INS1. As to the kind of experiment: INS-1E survival protection against cytokine death – cell-based, luminescence, retest, dose response (AID 449756).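 Note: cell death triggered by IL-1 beta plus TNF-alpha plus IFN-gamma mixture; protective hits raise ATP signal compared with cytokine alone wells.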 Format: functional. To be noted: Rattus norvegicus.
In the next test the target is Beta-galactosidase (Escherichia coli, UniProt Q8VNN2). Put plainly: Dose response counterscreen for EBI2 assay utilizing the enzyme, b-galactosidase. Format: functional.
Beta-galactosidase, sequence (Q8VNN2 whole entry): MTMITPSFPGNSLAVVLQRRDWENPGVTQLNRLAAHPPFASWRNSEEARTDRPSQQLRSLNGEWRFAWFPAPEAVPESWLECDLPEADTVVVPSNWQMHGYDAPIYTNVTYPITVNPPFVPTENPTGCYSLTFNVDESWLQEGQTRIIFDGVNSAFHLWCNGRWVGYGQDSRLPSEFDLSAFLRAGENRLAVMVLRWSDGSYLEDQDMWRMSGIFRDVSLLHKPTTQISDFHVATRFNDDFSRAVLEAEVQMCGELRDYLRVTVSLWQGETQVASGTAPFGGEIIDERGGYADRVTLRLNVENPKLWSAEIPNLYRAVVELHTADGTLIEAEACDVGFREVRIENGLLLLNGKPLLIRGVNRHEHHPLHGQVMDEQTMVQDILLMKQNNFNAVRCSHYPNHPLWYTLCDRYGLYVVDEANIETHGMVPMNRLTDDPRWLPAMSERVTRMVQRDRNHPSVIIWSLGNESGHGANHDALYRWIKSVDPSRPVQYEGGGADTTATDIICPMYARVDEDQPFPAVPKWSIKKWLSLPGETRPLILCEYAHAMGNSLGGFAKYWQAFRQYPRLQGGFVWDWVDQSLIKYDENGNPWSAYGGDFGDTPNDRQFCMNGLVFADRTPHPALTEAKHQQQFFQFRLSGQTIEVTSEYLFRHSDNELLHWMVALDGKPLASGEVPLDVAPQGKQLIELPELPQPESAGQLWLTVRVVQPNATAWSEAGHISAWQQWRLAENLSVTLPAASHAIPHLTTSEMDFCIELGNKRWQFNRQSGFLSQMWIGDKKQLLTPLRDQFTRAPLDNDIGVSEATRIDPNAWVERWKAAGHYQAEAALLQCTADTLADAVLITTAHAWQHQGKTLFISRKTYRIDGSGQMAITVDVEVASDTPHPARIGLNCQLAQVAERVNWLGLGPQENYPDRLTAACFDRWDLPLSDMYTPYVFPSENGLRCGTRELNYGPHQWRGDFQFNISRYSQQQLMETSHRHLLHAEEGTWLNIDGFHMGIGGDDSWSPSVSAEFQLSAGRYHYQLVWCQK

T2 sequence (Q9P0U3 whole entry, the tested form may be a part): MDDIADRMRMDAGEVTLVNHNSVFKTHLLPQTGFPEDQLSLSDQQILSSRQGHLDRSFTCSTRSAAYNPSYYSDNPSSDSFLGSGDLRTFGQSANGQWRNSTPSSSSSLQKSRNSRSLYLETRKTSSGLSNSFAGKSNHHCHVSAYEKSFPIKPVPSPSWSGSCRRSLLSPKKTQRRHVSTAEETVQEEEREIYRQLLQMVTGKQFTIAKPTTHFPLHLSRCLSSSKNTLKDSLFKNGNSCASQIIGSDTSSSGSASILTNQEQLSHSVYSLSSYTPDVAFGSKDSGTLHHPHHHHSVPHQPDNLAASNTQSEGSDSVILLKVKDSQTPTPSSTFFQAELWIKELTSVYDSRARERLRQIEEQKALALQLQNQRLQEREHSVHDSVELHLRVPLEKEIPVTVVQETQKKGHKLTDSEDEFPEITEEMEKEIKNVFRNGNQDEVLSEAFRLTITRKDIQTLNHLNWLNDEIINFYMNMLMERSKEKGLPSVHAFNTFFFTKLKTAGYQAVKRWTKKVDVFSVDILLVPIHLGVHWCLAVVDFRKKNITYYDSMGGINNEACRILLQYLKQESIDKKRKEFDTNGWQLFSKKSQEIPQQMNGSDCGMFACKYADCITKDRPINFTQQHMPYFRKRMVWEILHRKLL
Interleukin-8, sequence (P10145 whole entry, the tested form may be a part): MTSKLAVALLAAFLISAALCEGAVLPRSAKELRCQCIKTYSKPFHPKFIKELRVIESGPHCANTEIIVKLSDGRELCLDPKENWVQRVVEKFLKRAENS
Photoreceptor-specific nuclear receptor, sequence (Q9Y5X4 whole entry, the tested form may be a part): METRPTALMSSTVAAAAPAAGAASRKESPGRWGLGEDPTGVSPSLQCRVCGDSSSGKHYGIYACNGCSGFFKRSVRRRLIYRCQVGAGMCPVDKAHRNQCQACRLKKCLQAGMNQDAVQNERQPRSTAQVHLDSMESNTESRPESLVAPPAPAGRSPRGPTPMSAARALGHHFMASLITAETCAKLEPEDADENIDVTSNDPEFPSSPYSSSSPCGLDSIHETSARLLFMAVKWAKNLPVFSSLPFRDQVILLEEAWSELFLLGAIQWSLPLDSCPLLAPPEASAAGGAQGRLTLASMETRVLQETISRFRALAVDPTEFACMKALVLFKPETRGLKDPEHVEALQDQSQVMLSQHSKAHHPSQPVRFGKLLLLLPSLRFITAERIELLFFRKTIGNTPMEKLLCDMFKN

Regarding `CCC(C)(C)n1nnnc1C(c1cccnc1)N1CCN(c2cccc(C(F)(F)F)c2)CC1` (configuration not stated), the EC50 (in general, the concentration needed to bring the measured effect to its halfway point) was 0.101 µM (active) in test [1], 16 µM (active) in test [2] and > 60 µM (not active) in [3].
For the compound `Cn1c(-c2ccc3c(c2)OCO3)cnc1N`, in [4], the AC50 – broadly, the concentration at which the activity in the assay is half-maximal – is 83.7 µM (active).
As for `CC(=O)c1c(C)n(-c2ccc(C)cc2C)c2ccc(O)cc12`, the IC50 on Interleukin-8 is > 79 µM (inactive).
Turning to `COc1ccc2sc(/C=C/c3ccccc3O)[n+](C)c2c1`, the figures for the IC50 in [5] and in test [6] were 14.3 µM (active) and 10.2 µM (active), respectively.
`Cc1ccc(N/C(S)=C(\C#N)c2nc3ccccc3s2)cc1`: in test [7], the IC50 is 1.49 µM (active).
As to `CO[C@H](CN(C)S(=O)(=O)c1cccc(Cl)c1)[C@@H](C)CN([C@H](C)CO)S(=O)(=O)c1ccc(Cl)cc1`, the AbsAC35 was found to be 36.95 µM in test [8] and 104.79 µM in [9].
For the compound `COc1cc(-c2nc3ccc(C)cn3c2NCc2ccccc2)ccc1-c1cccc(Cl)c1`, the AC50 in the test with INS1 was 5.14 µM (active). Also, at Beta-galactosidase, the IC50 is 96 µM (inactive).
